Source: EP0162568A2, “Paulomycin analogues and their preparation” (THE UPJOHN COMPANY, priority 1984, dated 1985)
Read-outs that look alike come from different tables or passages of the source.

Tests used:
[1] = solubility (characterization); assay type: physicochemical
Gram-positive organisms = assay: antibacterial activity, general statement; assay type: cell-based; conditions: including organisms resistant to penicillins, macrolides and lincosaminides
[2] = in water; background statement; cited from earlier work
[3] = free acid form, in phosphate buffers at physiological pH (7.0-7.5)
[4] = in chloroform, methylene chloride
[5] = in ether and saturated hydrocarbon solvents
[6] = in lower alcohols, ketones, ethyl acetate

Compound	Solubility [1, 3]	Solubility ([1]; free acid form, in water)	Solubility [1, 4]	Solubility [1, 5]	Solubility [1, 6]	Solubility ([1]; salts, in water)	activity against Gram-positive organisms (Gram-positive organisms)	Solubility [2]
CC=C(NC(=S)SCC(NC(C)=O)C(=O)O)C(=O)OC1C(COC(C)=O)OC(C2(O)CC(=O)C(O)=C(C(N)=O)C2=O)C(O)C1OC1CC(OC)C(O)(C(C)OC(=O)C(C)CC)C(C)O1 (stereo not drawn) [Antibiotic 273a2α]	soluble	insoluble	less soluble	insoluble	Soluble	soluble	active	
paulomycin								relatively insoluble
CC=C(NC(=S)SCC(NC(C)=O)C(=O)O)C(=O)OC1C(COC(C)=O)OC(C2(O)CC(=O)C(O)=C(C(N)=O)C2=O)C(O)C1OC1CC(OC)C(O)(C(C)OC(=O)C(C)C)C(C)O1 (stereo not drawn) [Antibiotic 273a2β]	soluble	insoluble	less soluble	insoluble	Soluble	soluble	active	
